# According to US10633379B2, “Bromodomain inhibitors” (AbbVie Inc., priority 2016, dated 2020):
# Legend:
# BRD4 (BDI_K57-E168) = BRD4 (BDI_K57-E168) (Homo sapiens (Human), UniProt O60885); assay: TR-FRET bromodomain binding assay, BRD4 BDI; details: mean Ki, calculated from IC50, probe Kd and probe concentration
# Description: (§1) A time-resolved fluorescence resonance energy transfer (TR-FRET) assay was used to determine the affinities of compounds of the Examples listed in Table 1 for each bromodomain of BRD4. His-tagged first (BDI: amino acids K57-E168) and second (BDII: amino acids E352-M457) bromodomains of BRD4 were expressed and purified. An Alexa647-labeled BET-inhibitor was used as the fluorescent probe in the assay.
# (§2) Compound dilution series were prepared in DMSO via an approximately 3-fold serial dilution. Compound dilutions were added directly into white, low-volume assay plates (Perkin Elmer Proxiplate 384 Plus#6008280) using a Labcyte Echo in conjunction with Labcyte Access and Thermo Multidrop CombinL robotics. Compounds were then suspended in eight microliters (μL) of assay buffer (20 mM Sodium Phosphate, pH 6.0, 50 mM NaCl, 1 mM Ethylenediaminetetraacetic acid disodium salt dihydrate, 0.01% Triton X-100, 1 mM DL-Dithiothreitol) containing His-tagged bromodomain, Europium-conjugated anti-His antibody (Invitrogen PV5596) and Alexa-647-conjugated probe.
# (§3) The final concentration of 1× assay mixture contained 2% DMSO, 12 nM His tagged BRD4 (BDI_K57-E168) and 100 nM probe or 4 nM His tagged BRD4 (BDII_E352-M457) and 30 nM probe, and 1 nM Europium-conjugated anti-His-tag antibody, and compound concentrations in the range of: 49.02 μM-0.61 nM or 0.98 μM-0.15 nM.
# (§4) After a one-hour equilibration at room temperature, TR-FRET ratios were determined using an Envision multilabel plate reader (Ex 340, Em 495/520).
# (§5) TR-FRET data were normalized to the means of 24 no-compound controls (“high”) and 8 controls containing 1 μM un-labeled probe (“low”). Percent inhibition was plotted as a function of compound concentration and the data were fit with the 4 parameter logistic equation to obtain IC50s. Inhibition constants (Ki) were calculated from the IC50s, probe Kd and probe concentration.
# BRD4 (BDII_E352-M457) = BRD4 (BDII_E352-M457) (Homo sapiens (Human), UniProt O60885); assay: TR-FRET bromodomain binding assay, BRD4 BDII; details: mean Ki, calculated from IC50, probe Kd and probe concentration
# Description: as §1, §2, §3, §4, §5
Ki (BRD4 (BDI_K57-E168)) [nM],Ki (BRD4 (BDII_E352-M457)) [nM],SMILES
743,2.9,"Cc1cc(F)cc(C)c1Oc1ccc(C(C)(C)O)cc1-c1cn(C)c(=O)c2[nH]c(C(=O)NC34CC(C3)C4)cc12 [Example 75, N-(bicyclo[1.1.1]pentan-1-yl)-4-[2-(4-fluoro-2,6-dimethylphenoxy)-5-(2-hydroxypropan-2-yl)phenyl]-6-methyl-7-oxo-6,7-dihydro-1H-pyrrolo[2,3-c]pyridine-2-carboxamide]"
44,1.8,"CCNC(=O)c1cc2c(-c3cc(C(O)(C(C)CC)C4CC4)cnc3Oc3c(C)cccc3C)cn(C)c(=O)c2[nH]1 (stereo not drawn) [Example 27, 4-[5-(1-cyclopropyl-1-hydroxy-2-methylbutyl)-2-(2,6-dimethylphenoxy)pyridin-3-yl]-N-ethyl-6-methyl-7-oxo-6,7-dihydro-1H-pyrrolo[2,3-c]pyridine-2-carboxamide]"
1340,2.5,"CCNC(=O)c1cc2c(-c3cc(C(C)(O)CC(C)C)ccc3Oc3c(C)cccc3C)cn(C)c(=O)c2[nH]1 (stereo not drawn) [Example 105, 4-[2-(2,6-dimethylphenoxy)-5-(2-hydroxy-4-methylpentan-2-yl)phenyl]-N-ethyl-6-methyl-7-oxo-6,7-dihydro-1H-pyrrolo[2,3-c]pyridine-2-carboxamide]"
521,1.5,"CCNC(=O)c1cc2c(-c3cc(C(C)(O)CCc4ccccc4)cnc3Oc3c(C)cccc3C)cn(C)c(=O)c2[nH]1 (stereo not drawn) [Example 21, 4-[2-(2,6-dimethylphenoxy)-5-(2-hydroxy-4-phenylbutan-2-yl)pyridin-3-yl]-N-ethyl-6-methyl-7-oxo-6,7-dihydro-1H-pyrrolo[2,3-c]pyridine-2-carboxamide]"
356,0.6,"Cc1cc(F)cc(C)c1Oc1ccc(C(C)(C)O)cc1-c1cn(C)c(=O)c2[nH]c(C(=O)NC3CC3)cc12 [Example 121, N-cyclopropyl-4-[2-(4-fluoro-2,6-dimethylphenoxy)-5-(2-hydroxypropan-2-yl)phenyl]-6-methyl-7-oxo-6,7-dihydro-1H-pyrrolo[2,3-c]pyridine-2-carboxamide]"
323,1.4,"CCNC(=O)c1cc2c(-c3cc(C(C)(O)CO)ccc3Oc3c(C)cccc3Cl)cn(C)c(=O)c2[nH]1 (stereo not drawn) [Example 115, 4-[2-(2-chloro-6-methylphenoxy)-5-(1,2-dihydroxypropan-2-yl)phenyl]-N-ethyl-6-methyl-7-oxo-6,7-dihydro-1H-pyrrolo[2,3-c]pyridine-2-carboxamide]"
181,0.4,"CCNC(=O)c1cc2c(-c3cc(C(C)(C)O)c(F)cc3Oc3c(C)cccc3C)cn(C)c(=O)c2[nH]1 [Example 64, 4-[2-(2,6-dimethylphenoxy)-4-fluoro-5-(2-hydroxypropan-2-yl)phenyl]-N-ethyl-6-methyl-7-oxo-6,7-dihydro-1H-pyrrolo[2,3-c]pyridine-2-carboxamide]"
2310,7.5,"Cc1cccc(C(F)F)c1Oc1ccc(C(C)(C)O)cc1-c1cn(C)c(=O)c2[nH]c(C(=O)NC(C)(C)C)cc12 [Example 71, N-tert-butyl-4-{2-[2-(difluoromethyl)-6-methylphenoxy]-5-(2-hydroxypropan-2-yl)phenyl}-6-methyl-7-oxo-6,7-dihydro-1H-pyrrolo[2,3-c]pyridine-2-carboxamide]"
231,0.8,"CCNC(=O)c1cc2c(-c3cc(C(C)(C)O)ccc3Oc3c(C)cc(C(C)(C)O)cc3C)cn(C)c(=O)c2[nH]1 [Example 107, N-ethyl-4-{5-(2-hydroxypropan-2-yl)-2-[4-(2-hydroxypropan-2-yl)-2,6-dimethylphenoxy]phenyl}-6-methyl-7-oxo-6,7-dihydro-1H-pyrrolo[2,3-c]pyridine-2-carboxamide]"
416,1.4,"CCNC(=O)c1cc2c(-c3cc(C(C)(O)C(F)(F)F)ccc3Oc3c(C)cc(F)cc3C)cn(C)c(=O)c2[nH]1 (stereo not drawn) [Example 86, N-ethyl-4-[2-(4-fluoro-2,6-dimethylphenoxy)-5-(1,1,1-trifluoro-2-hydroxypropan-2-yl)phenyl]-6-methyl-7-oxo-6,7-dihydro-1H-pyrrolo[2,3-c]pyridine-2-carboxamide]"
632,4.1,"CCNC(=O)c1cc2c(-c3cc(C(O)(CC)c4ccccc4)cnc3Oc3c(C)cccc3C)cn(C)c(=O)c2[nH]1 (stereo not drawn) [Example 7, 4-[2-(2,6-dimethylphenoxy)-5-(1-hydroxy-1-phenylpropyl)pyridin-3-yl]-N-ethyl-6-methyl-7-oxo-6,7-dihydro-1H-pyrrolo[2,3-c]pyridine-2-carboxamide]"
110,2.5,"CCNC(=O)c1cc2c(-c3cc(C(C)(C)O)cnc3Oc3c(Cl)cc(F)cc3Cl)cn(C)c(=O)c2[nH]1 [Example 101, 4-[2-(2,6-dichloro-4-fluorophenoxy)-5-(2-hydroxypropan-2-yl)pyridin-3-yl]-N-ethyl-6-methyl-7-oxo-6,7-dihydro-1H-pyrrolo[2,3-c]pyridine-2-carboxamide]"
196,4,"CCNC(=O)c1cc2c(-c3cc(C(C)(O)C(C)C)cnc3Oc3c(C)cccc3C)cn(C)c(=O)c2[nH]1 (stereo not drawn) [Example 19, 4-[2-(2,6-dimethylphenoxy)-5-(2-hydroxy-3-methylbutan-2-yl)pyridin-3-yl]-N-ethyl-6-methyl-7-oxo-6,7-dihydro-1H-pyrrolo[2,3-c]pyridine-2-carboxamide]"
158,2,"Cc1cc(S(C)(=O)=O)cc(C)c1Oc1ccc(C(C)(C)O)cc1-c1cn(C)c(=O)c2[nH]c(C(=O)NC(C)(C)C)cc12 [Example 90, N-tert-butyl-4-{5-(2-hydroxypropan-2-yl)-2-[4-(methanesulfonyl)-2,6-dimethylphenoxy]phenyl}-6-methyl-7-oxo-6,7-dihydro-1H-pyrrolo[2,3-c]pyridine-2-carboxamide]"
3510,7.5,"Cc1cc(F)cc(C)c1Oc1ccc(C(C)(C)O)cc1-c1cn(C)c(=O)c2[nH]c(C(=O)NC3(C)CC3(F)F)cc12 (stereo not drawn) [Example 60, N-(2,2-difluoro-1-methylcyclopropyl)-4-[2-(4-fluoro-2,6-dimethylphenoxy)-5-(2-hydroxypropan-2-yl)phenyl]-6-methyl-7-oxo-6,7-dihydro-1H-pyrrolo[2,3-c]pyridine-2-carboxamide]"
6580,20.5,"Cc1cccc(C(F)(F)F)c1Oc1ccc(C(C)(O)CO)cc1-c1cn(C)c(=O)c2[nH]c(C(=O)NC(C)(C)C)cc12 (stereo not drawn) [Example 127, N-tert-butyl-4-{5-(1,2-dihydroxypropan-2-yl)-2-[2-methyl-6-(trifluoromethyl)phenoxy]phenyl}-6-methyl-7-oxo-6,7-dihydro-1H-pyrrolo[2,3-c]pyridine-2-carboxamide]"
97,1.9,"CCNC(=O)c1cc2c(-c3cc(C(O)(CC)C4CC4)cnc3Oc3c(C)cccc3C)cn(C)c(=O)c2[nH]1 (stereo not drawn) [Example 12, 4-[5-(1-cyclopropyl-1-hydroxypropyl)-2-(2,6-dimethylphenoxy)pyridin-3-yl]-N-ethyl-6-methyl-7-oxo-6,7-dihydro-1H-pyrrolo[2,3-c]pyridine-2-carboxamide]"
333,2.3,"CCNC(=O)c1cc2c(-c3cc(C(C)(O)c4ccccc4)cnc3Oc3c(C)cccc3C)cn(C)c(=O)c2[nH]1 (stereo not drawn) [Example 16, 4-[2-(2,6-dimethylphenoxy)-5-(1-hydroxy-1-phenylethyl)pyridin-3-yl]-N-ethyl-6-methyl-7-oxo-6,7-dihydro-1H-pyrrolo[2,3-c]pyridine-2-carboxamide]"
333,4.8,"Cc1cc(Cl)cc(C)c1Oc1ncc(C(C)(C)O)cc1-c1cn(C)c(=O)c2[nH]c(C(=O)NC(C)(C)C)cc12 [Example 95, N-tert-butyl-4-[2-(4-chloro-2,6-dimethylphenoxy)-5-(2-hydroxypropan-2-yl)pyridin-3-yl]-6-methyl-7-oxo-6,7-dihydro-1H-pyrrolo[2,3-c]pyridine-2-carboxamide]"
279,1.9,"CCNC(=O)c1cc2c(-c3cc(C(C)(C)O)ccc3Oc3c(C)cccc3Cl)cn(C)c(=O)c2[nH]1 [Example 30, 4-[2-(2-chloro-6-methylphenoxy)-5-(2-hydroxypropan-2-yl)phenyl]-N-ethyl-6-methyl-7-oxo-6,7-dihydro-1H-pyrrolo[2,3-c]pyridine-2-carboxamide]"

SMILES,Ki (BRD4 (BDI_K57-E168)) [nM],Ki (BRD4 (BDII_E352-M457)) [nM]
"CCNC(=O)c1cc2c(-c3cc([C@](C)(O)CO)ccc3Oc3c(C)cccc3C)cn(C)c(=O)c2[nH]1 (single isomer, unassigned) [Example 69, 4-{5-[(25)-1,2-dihydroxypropan-2-yl]-2-(2,6-dimethylphenoxy)phenyl}-N-ethyl-6-methyl-7-oxo-6,7-dihydro-1H-pyrrolo[2,3-c]pyridine-2-carboxamide]",499,2.3
